Patent US20130184302A1, “METHODS FOR TREATING IRRITABLE BOWEL SYNDROME (IBS) AND INFECTIONS” (priority 2011, published 2013)

Legend:
[1] = system: patients with diarrhea-predominant IBS; experiment: IBS-QOL questionnaire, rifaximin 550 mg BID vs placebo in d-IBS; type: in vivo, human
Protocol: Both groups received placebo for an additional 14 days after the initial 2-week treatment. Quality of life was assessed with the 34-item IBS-QOL questionnaire at baseline and 4 weeks after initiating treatment. Each item was scored on a 5-point scale (1=not at all; 2=slightly; 3=moderately; 4=quite a bit; and 5=extremely or a great deal). Results for composite and subscale scores were converted to a scale ranging from 0 to 100, with higher scores indicating better QOL.
Following a 2-week initial treatment period, both groups of patients received placebo for an additional 14 days. Quality of life was assessed via the 34-item IBS-QOL questionnaire at baseline and 4 weeks after initiating treatment. Each item was scored on a 5-point scale (1=not at all; 2=slightly; 3=moderately; 4=quite a bit; 5=extremely or a great deal); results for composite and subscale scores were converted to a scale ranging from 0 to 100, with higher scores indicating better QOL.

[2] = system: patients with non-constipation IBS (non-C IBS); experiment: Stool frequency, rifaximin 550 mg TID study; type: in vivo, human
[3] = system: patients with cirrhosis and overt HE episodes; experiment: Rates of commonly-occurring infections and antibiotic use in cirrhotic patients with HE on long-term rifaximin; type: in vivo
Source text: Cirrhosis patients can have an increased risk of infections and subsequent hospitalizations, leading to increased mortality. […] A description of the OLM and RCT can be found in WO 2011/005388, “METHODS OF TREATING HEPATIC ENCEPHALOPATHY,” which is incorporated herein by reference in its entirety. In the analysis below, the effect of long term RFX treatment on infection rates and antibiotic use was examined.
Patients with cirrhosis and ≧2 overt HE episodes within 12 months were enrolled in the RCT (RFX=140; placebo [PBO]=159); 170 new patients, in addition to 70 RFX and 82 PBO patients who rolled over from the RCT were enrolled in OLM. The “All RFX group” (n=392) consisted of RFX-treated patients in both studies. Infection rates per person exposure years (PEY) were compared across RCT and All RFX groups, and antibiotic use over time was examined.
In the 6 month RCT, RFX exposure was 50 PEY vs 46 PEY in the PBO group. Long term RFX exposure was for median =427 (2-1427) days, or 510 PEY.

subjects with d-IBS [4] = experiment: Designed study of 14-day oral rifaximin 550 mg TID in d-IBS (Example 2); type: in vivo, human; details: oral rifaximin 550 mg TID 14 days
Source text: A measure of efficacy is based on subjects' answers to the Weekly Subject Global Assessment (SGA) questions over the 4 week study duration in relation to their IBS symptoms.

[5] = system: C. difficile infection (CDI); experiment: CDI trial rifaximin 400 mg TID vs vancomycin 125 mg QID: clinical success at Test of Cure; type: in vivo, human
Protocol: Criteria for entry into the trial were: • Age>=18 years old; • Had acute diarrhea at screening defined as >=3 unformed stools in the last 24 hours and at least one sign of enteric infection (fever, nausea, lose of appetite, vomiting, severe abdominal pain/discomfort); and • a positive C. diff stool toxin assay
The primary efficacy endpoint of the study was defined as the proportion of subjects achieving clinical success. Specifically, clinical success was defined as the absence of severe abdominal pain at Test of Cure (TOC), absence of fever (<38° C.) at TOC, and <3 unformed stools for two consecutive days at TOC.
The non-inferiority margin for the primary endpoint was defined as lower bound of 95% CI of delta above −15%.
Clinical success was defined as the: Absence of severe abdominal pain at TOC, absence of fever (<38° C.) at TOC, and <3 unformed stools for two consecutive days at TOC. Test of cure defined as Day 14+/−1 day.

[6] = system: C. difficile infection (CDI); experiment: CDI trial: enteric symptoms at TOC; type: in vivo, human
Source text: Table 41 sets forth a summary of the enteric symptoms at TOC.

[7] = system: C. difficile infection (CDI); experiment: CDI trial: continuing illnesses; type: in vivo, human
[8] = system: C. difficile infection (CDI); experiment: CDI trial: number of unformed stools during the treatment period; type: in vivo, human
Source text: FIG. 18 sets for the average number of unformed stools per day of the study.

subjects with d-IBS [9] = experiment: Adequate relief of IBS symptoms and bloating (weekly yes/no questions), rifaximin BID study in d-IBS; type: in vivo, human; details: aIBS
[10] = at TOC (Day 14+/−1), Rifaximin N = 117, Vancomycin N = 115
[11] = Rifaximin N = 108, Vancomycin N = 111
[12] = Rifaximin N = 117, Vancomycin N = 115

Q: With `CO[C@H]1/C=C/O[C@@]2(C)Oc3c(C)c(O)c4c(O)c(c5c(nc6cc(C)ccn65)c4c3C2=O)NC(=O)/C(C)=C\C=C\[C@H](C)[C@H](O)[C@@H](C)[C@@H](O)[C@@H](C)[C@H](OC(C)=O)[C@@H]1C` [Rifaximin, (2S,16Z,18E,20S,21S,22R, 23R,24R,25S,26S,27S,28E)-5,6,21,23,25 Pentahydroxy-27-methoxy-2,4,11,16,20,22,24,26-octamethyl-2,7-(epoxypentadeca-(1,11,13)trienimino) benzofuro (4,5-e) pyrido(1,2,-a) benzimidazole-1,15(2H)-dione,25-acetate] as the compound, how does the “Mean Change From Baseline in IBS-QOL Scores at Week 4: Body image” value ([1]; Rifaximin 1100 mg/d (n = 191)) read?
A: 20.1

Q: And the “Mean Change From Baseline in IBS-QOL Scores at Week 4: Dysphoria” value ([1]; Rifaximin 1100 mg/d (n = 191))?
A: 24.8

Q: What about the “Mean Change From Baseline in IBS-QOL Scores at Week 4: Food avoidance” value ([1]; Rifaximin 1100 mg/d (n = 191)) of the same compound?
A: 25.0

Q: And the “Mean Change From Baseline in IBS-QOL Scores at Week 4: Health worry” value ([1]; Rifaximin 1100 mg/d (n = 191))?
A: 16.0

Q: And the “Mean Change From Baseline in IBS-QOL Scores at Week 4: Interference with activity” value ([1]; Rifaximin 1100 mg/d (n = 191))?
A: 22.2

Q: What about the “Mean Change From Baseline in IBS-QOL Scores at Week 4: Relationship” value ([1]; Rifaximin 1100 mg/d (n = 191)) of the same compound?
A: 14.9

Q: What about the “Mean Change From Baseline in IBS-QOL Scores at Week 4: Sexual” value ([1]; Rifaximin 1100 mg/d (n = 191)) of the same compound?
A: 13.6

Q: And the “Mean Change From Baseline in IBS-QOL Scores at Week 4: Social reaction” value ([1]; Rifaximin 1100 mg/d (n = 191))?
A: 17.3

Q: What about the “Mean Change From Baseline in IBS-QOL Scores at Week 4: Overall score” value ([1]; Rifaximin 1100 mg/d (n = 191), scale 0 to 100) of the same compound?
A: 20.4

Q: What about the “Improvement with rifaximin over placebo, IBS-QOL: Body image” value ([1]; Week 4, 1100 mg/d) of the same compound?
A: 37.4%

Q: What about the “Improvement with rifaximin over placebo, IBS-QOL: Dysphoria” value ([1]; Week 4, 1100 mg/d) of the same compound?
A: 25.3%

Q: What about the “Improvement with rifaximin over placebo, IBS-QOL: Food avoidance” value ([1]; Week 4, 1100 mg/d) of the same compound?
A: 22.1%

Q: What about the “Improvement with rifaximin over placebo, IBS-QOL: Health worry” value ([1]; Week 4, 1100 mg/d) of the same compound?
A: 30.6%

Q: What about the “Improvement with rifaximin over placebo, IBS-QOL: Interference with activity” value ([1]; Week 4, 1100 mg/d) of the same compound?
A: 22.2%

Q: And the “Improvement with rifaximin over placebo, IBS-QOL: Overall score” value ([1]; Week 4, 1100 mg/d)?
A: 28.7%

Q: What about the “Improvement with rifaximin over placebo, IBS-QOL: Relationship” value ([1]; Week 4, 1100 mg/d) of the same compound?
A: 39.5%

Q: And the “Improvement with rifaximin over placebo, IBS-QOL: Sexual” value ([1]; Week 4, 1100 mg/d)?
A: 24.9%

Q: And the “Improvement with rifaximin over placebo, IBS-QOL: Social reaction” value ([1]; Week 4, 1100 mg/d)?
A: 31.6%

Q: And the “% with decrease in SF (stool frequency)” value ([2]; Week 1)?
A: 14.4%

Q: What about the “% with decrease in SF (stool frequency)” value ([2]; Week 2) of the same compound?
A: 20.6%

Q: What about the “% with decrease in SF (stool frequency)” value ([2]; Week 3) of the same compound?
A: 22.2%

Q: What about the “% with decrease in SF (stool frequency)” value ([2]; Week 4) of the same compound?
A: 21.6%

Q: What about the “% with decrease in SF (stool frequency)” value ([2]; Week 5) of the same compound?
A: 25.7%

Q: What about the “% with decrease in SF (stool frequency)” value ([2]; Week 6) of the same compound?
A: 22.9%

Q: And the “% with decrease in SF (stool frequency)” value ([2]; Week 7)?
A: 23.8%

Q: What about the “% with decrease in SF (stool frequency)” value ([2]; Week 8) of the same compound?
A: 24.4%

Q: And the “% with decrease in SF (stool frequency)” value ([2]; Week 9)?
A: 25.4%

Q: What about the “% with decrease in SF (stool frequency)” value ([2]; Week 10) of the same compound?
A: 26.7%

Q: And the “% with decrease in SF (stool frequency)” value ([2]; Week 11)?
A: 25.4%

Q: And the “% with decrease in SF (stool frequency)” value ([2]; Week 12)?
A: 27.0%

Q: And the “C. difficile infection, rate” value ([3]; All RFX Patients (n = 392), PEY = 510)?
A: (0.012) number of subjects/PEY

Q: And the “C. difficile infection, rate” value ([3]; RCT Patients, RFX (n = 140), PEY = 50)?
A: (0.040) number of subjects/PEY

Q: And the “Any infection, rate” value ([3]; human, in vivo)?
A: (0.072) number of subjects/PEY

Q: What about the “Answers to weekly SGA question on adequate relief of IBS symptom of bloating” value (subjects with d-IBS [4]) of the same compound?
A: respond “Yes” more often

Q: What about the “Answers to weekly SGA question on adequate relief of IBS symptoms” value (subjects with d-IBS [4]) of the same compound?
A: respond “Yes” more often

Q: What about the “Clinical Success: Treatment Difference” value ([5]; Rifaximin vs Vancomycin, at TOC) of the same compound?
A: −6.2%

Q: And the “Clinical Success: Yes, number of subjects” value ([5]; at TOC (Day 14+/−1), Rifaximin 400 mg TID N = 117, Vancomycin 125 mg QID N = 115)?
A: 67

Q: What about the “Clinical Success: No, number of subjects” value [5, 10] of the same compound?
A: 50

Q: What about the “Clinical Success: No, percent of subjects” value [5, 10] of the same compound?
A: (43%)

Q: And the “Clinical Success: Yes, percent of subjects” value [5, 10]?
A: (57%)

Q: What about the “Diarrhea: No, number of subjects” value [6, 11] of the same compound?
A: 86

Q: What about the “Diarrhea: No, percent of subjects” value [6, 11] of the same compound?
A: (80%)

Q: What about the “Diarrhea: Yes, number of subjects” value [6, 11] of the same compound?
A: 22

Q: What about the “Diarrhea: Yes, percent of subjects” value [6, 11] of the same compound?
A: (20%)

Q: And the “Fever: No, number of subjects” value [6, 11]?
A: 98

Q: What about the “Fever: No, percent of subjects” value [6, 11] of the same compound?
A: (91%)

Q: And the “Fever: Yes, number of subjects” value [6, 11]?
A: 10

Q: What about the “Fever: Yes, percent of subjects” value [6, 11] of the same compound?
A: (9%)

Q: And the “Severe Abdominal Pain/Discomfort: No, number of subjects” value [6, 11]?
A: 80

Q: And the “Severe Abdominal Pain/Discomfort: No, percent of subjects” value [6, 11]?
A: (74%)

Q: And the “Severe Abdominal Pain/Discomfort: Yes, number of subjects” value [6, 11]?
A: 28

Q: What about the “Severe Abdominal Pain/Discomfort: Yes, percent of subjects” value [6, 11] of the same compound?
A: (26%)

Q: What about the “Diarrhea: Treatment Difference” value ([6]; Rifaximin vs Vancomycin) of the same compound?
A: −1.5%

Q: And the “Fever: Treatment Difference” value ([6]; Rifaximin vs Vancomycin)?
A: −7.5%

Q: And the “Severe Abdominal Pain/Discomfort: Treatment Difference” value ([6]; Rifaximin vs Vancomycin)?
A: −11.5%

Q: And the “Continuing Illness: No, number of subjects” value [7, 12]?
A: 90

Q: What about the “Continuing Illness: No, percent of subjects” value [7, 12] of the same compound?
A: (77%)

Q: And the “Continuing Illness: Yes, number of subjects” value [7, 12]?
A: 27

Q: And the “Continuing Illness: Yes, percent of subjects” value [7, 12]?
A: (23%)

Q: And the “Continuing Illness: Treatment Difference” value ([7]; Rifaximin vs Vancomycin)?
A: −9.2%

Q: And the “Adjusted mean number of unformed stools-ANOVA: Treatment Difference (95% CI)” value ([8]; Rifaximin vs Vancomycin, treatment period)?
A: 0.46 (−0.08, 1.00)

Q: And the “Overall treatment difference in number of unformed stools-Mixed Model: Treatment Difference (95% CI)” value ([8]; Rifaximin vs Vancomycin, mixed effects model with treatment, center, study day as fixed effects)?
A: 0.32 (−0.08, 0.72)

Q: What about the “Adjusted mean number of unformed stools-ANOVA” value ([8]; during the treatment period, ANOVA model with treatment and center as main effects, Rifaximin N = 117, Vancomycin N = 115) of the same compound?
A: 2.36

Q: What about the “Treatment effect, Bloating” value (subjects with d-IBS [9]) of the same compound?
A: 31.4%*, 31.4%
